This is an account of results in patent US6911316B1, “Medical uses of scuPA/suPAR complex” (Thrombotech Ltd., priority 1996, dated 2005).

Where “and” joins values, the source holds several entries; their conditions need not be identical. Identical values can stand only once.

The test system of test [1] is purified bovine fibrinogen clot. The test is described as follows: Fibrinolysis of purified fibrinogen clot, size of lytic zones. It counts as biochemical. The method, then:
(§1) Fibrinogen containing plasminogen was reconstituted in phosphate buffered saline (PBS), pH 7.4 or in serum to a concentration of 3 mg/ml. Fibrin clots were prepared by the addition of 0.025 NIH units of human thrombin per […] fibrinogen solution. The mixture was decanted onto the lid of a culture dish and incubated for 60 min at room temperature. After clot formation, portions of 10 μl of PBS containing 1 μM scuPA, with or without an equimolar concentration of suPAR, were placed on several parts of the surface of the clot. The clot was incubated for 2 to 3 hr at 37° C., until the appearance of digestion areas on the surface. At that stage the clot was washed several times with PBS and incubated overnight with 0.2° trappan blue. On the following day, the clot was rinsed 4 is times with PBS and photographed The pictures were scanned with a Hoefer GS 300 scanning densitometer. The size of the lytic zones was calculated by the NIH image program.

Test [2] has as its system 125I radiolabeled fibrinogen clots. Put plainly: Lysis of 125I radiolabeled fibrinogen clot, activator added directly to the clot, solubilized radioactivity. It counts as biochemical, human. The conditions noted are these: 2 hrs. The method, then: (§2) Human fibrinogen (Sigma. St. Louis, Mo.) was radiolabeled with ^125I [Higazi, A A-R. & Abu-Much R. et al. J. Biol. Chem. 270:9472-9477 (1995)]. ^125I-labeled fibrinogen was added to a solution of PBS, pH 7.4, containing either 3 mg/ml fibrinogen and 1 μM glu-plasminogen or plasma. Clots were formed in wells of tissue culture plates with an inner diameter of 16 mm (Costar, Cambridge, Mass.). To initiate the clot formation, 10 μl of a solution containing 2 NIH units of thrombin (Sigma. St. Louis, Mo.) were added to 0.4 ml of fibrinogen solution or to plasma. For determination of fibrinolysis, plasminogen activating agents (1 μM) or 1376 MAT cells, in a total volume of 10 μl each, were directly added to the center of the clot and after incubation for specific periods, the wells were washed and the radioactivity of the lavage solution was determined by means of a gamma counter. Fibrinolysis was also measured as previously described [Higazi, A A-R., et al. Biochem. J. 300:251-255 (1994)], by addition of 0.4 ml of serum or PBS, containing 25 nM of the plasminogen activator agent (scuPA, scuPA/suPAR complex or tcuPA). […] Fibrinolytic activity was determined by following the release from the ^125I-labeled fibrin clot of labeled soluble degradation products of fibrin and is illustrated in FIGS. 7 and 8.

The subject of test [3] is human plasma clot. The test is described as follows: Fibrinolysis of clot formed by thrombin from human plasma (lytic zones / solubilized radioactivity). It counts as biochemical. The method, then:
as §1, with “program. […]” for “program.”
as §2, with “Clots were formed in wells of tissue culture plates with an inner diameter of 16 mm (Costar, Cambridge, Mass.). To initiate the clot formation, 10 μl of a solution containing 2 NIH units of thrombin (Sigma. St. Louis, Mo.) were added to 0.4 ml of fibrinogen solution or to plasma.” left out

The subject of test [4] is human fibrinogen. Put plainly: Fibrinolysis of human fibrinogen clot (not shown). It counts as biochemical. The conditions noted are these: human fibrinogen instead of bovine. The method, then:
as §1

Test [5] deals with radiolabeled plasma-derived clot. Put plainly: Lysis of radiolabeled plasma-derived clot covered with serum or PBS containing the plasminogen activator. It counts as biochemical, human. The method, then:
Human fibrinogen (Sigma. St. Louis, Mo.) was radiolabeled with ^125I [Higazi, A A-R. & Abu-Much R. et al. J. Biol. Chem. 270:9472-9477 (1995)]. ^125I-labeled fibrinogen was added to a solution of PBS, pH 7.4, containing either 3 mg/ml fibrinogen and 1 μM glu-plasminogen or plasma. Clots were formed in wells of tissue culture plates with an inner diameter of 16 mm (Costar, Cambridge, Mass.). To initiate the clot formation, 10 μl of a solution containing 2 NIH units of thrombin (Sigma. St. Louis, Mo.) were added to 0.4 ml of fibrinogen solution or to plasma. For determination of fibrinolysis, plasminogen activating agents (1 μM) or 1376 MAT cells, in a total volume of 10 μl each, were directly added to the center of the clot and after incubation for specific periods, the wells were washed and the radioactivity of the lavage solution was determined by means of a gamma counter. Fibrinolysis was also measured as previously described [Higazi, A A-R., et al. Biochem. J. 300:251-255 (1994)], by addition of 0.4 ml of serum or PBS, containing 25 nM of the plasminogen activator agent (scuPA, scuPA/suPAR complex or tcuPA). The plates were incubated at 37° C. in an incubator for the required time (about 2 hours, see legends to the Figures). Aliquots of 25 μl were removed at the specific time point for counting of the solubilized label in a gamma counter. Fibrinolytic activity was determined by following the release from the ^125I-labeled fibrin clot of labeled soluble degradation products of fibrin and is illustrated in FIGS. 7 and 8.

Test [6] relates to human IgG. Put plainly: Binding of 125I-suPAR to IgG, precipitation with protein G. The conditions noted are these: for precipitation by protein G from native plasma: 50 nM radiolabeled protein, FIG. 11. The method, then:
Plasma (5 ml) were incubated with 1 ml of IgG (bound to beads, as described) for 2 hr, at 4° C. The beads were precipitated by centrifugation and the plasma was decanted and used for precipitation of radiolabeled suPAR or for formation of clots after addition of thrombin, as described herein before.
(§3) Binding of ^125I-suPAR to IgG was determined by incubation of 50 nM radiolabeled suPAR, 0.1 ml plasma and 0.5 ml of IgG protein, for 2 hr at 4° C. Following incubation, the mixture was centrifugated. The precipitate was washed 4 is times with PBS and the radioactivity incorporated into protein G was determined. Non-specific binding was determined by using plasma that had been depleted of IgG or by measuring the precipitation of irrelevant protein. All experiments were repeated at least three times.

For test [7], the system named is IgG. The test is described as follows: Binding of suPAR to IgG with rabbit serum. To be noted: rabbit serum instead of human serum, data not shown. On the procedure: as §3
The test system of test [8] is plasminogen. To be noted: cited from earlier work.
The test system of test [9] is bovine fibrinogen clot reconstituted in serum. The test is described as follows: Fibrinolysis of bovine fibrinogen clot reconstituted in serum. It counts as biochemical. The conditions noted are these: FIG. 5. On the procedure:
as §1
In an experiment designed to test the possibility that the different effects were related to the source of fibrinogen, the fibrinogen was removed from plasma by clotting with thrombin and removal of the clot by centrifugation to obtain serum. […] The possibility that the stimulatory activity was derived from the anticoagulants present in plasma was considered.

The test system of test [10] is radiolabeled fibrinogen-derived clot. The test is described as follows: Lysis of radiolabeled fibrinogen-derived clot covered with serum or PBS containing the plasminogen activator. It counts as biochemical, human. On the procedure: as §2
Test [11] relates to radiolabeled fibrinogen-derived clot containing 1 μM glu-plasminogen. Put plainly: Fibrinolytic activity of suPAR-Sepharose precipitates on fibrinogen-derived clot. It counts as biochemical, human. To be noted: FIG. 10. The method, then:
as §2, with “8. […]” for “8.”

Test [12] has as its system clot prepared from IgG-depleted plasma. Put plainly: Lysis of clots derived from normal or IgG-depleted plasma. It counts as biochemical, human. To be noted: versus clot from normal plasma, FIG. 13. On the procedure:
as §2, with “8. […]” for “8.”

Test [13] addresses PAI-1 (Homo sapiens, UniProt P05121). The conditions noted are these: cited from earlier work.
The mark [14] stands for this setting: plasma derived clot covered by serum, FIG. 8.

PAI-1, sequence (P05121 24-402, species assumed): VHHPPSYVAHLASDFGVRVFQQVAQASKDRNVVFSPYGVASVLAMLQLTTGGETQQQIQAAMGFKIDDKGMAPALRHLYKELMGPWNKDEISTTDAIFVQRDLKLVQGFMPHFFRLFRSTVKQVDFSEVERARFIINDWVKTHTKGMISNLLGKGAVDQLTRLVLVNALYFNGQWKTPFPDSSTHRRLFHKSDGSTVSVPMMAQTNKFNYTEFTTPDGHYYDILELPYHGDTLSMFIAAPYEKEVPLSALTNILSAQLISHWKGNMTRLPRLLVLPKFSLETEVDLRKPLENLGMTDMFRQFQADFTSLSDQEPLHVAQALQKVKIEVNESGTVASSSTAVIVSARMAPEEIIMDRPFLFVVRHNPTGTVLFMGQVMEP

In the case of “suPAR: soluble urokinase plasminogen activator receptor”, the “inhibition of scuPA activity in the presence of suPAR” value in test [1] (unlabeled bovine fibrinogen clot, equimolar suPAR) is on record as “about 40%”; in test [2] it was ~50%. Besides, the “enhancement of scuPA-mediated fibrinolysis by addition of suPAR” value in [3] (plasma clots, FIG. 2) is “up to 14 fold”. Further, the “inhibition of scuPA activity by suPAR” value in test [4] is reported as “also observed”. The “effect of suPAR alone on fibrinolysis” value in test [5] (plasma clot, FIG. 6) was “depends on the presence of scuPA”. In addition, the “effect of addition of suPAR to tcuPA” value in test [5] (setting [14]) is listed as “small stimulatory effect”. Also, the “precipitation by protein G from native plasma” value in test [6] is reported as “immunoprecipitates”. The “precipitation with purified human IgG instead of plasma” value in test [6] (FIG. 12) was “the same results were obtained”. In addition, in [6] (IgG-depleted plasma versus native plasma), the “precipitation of suPAR with IgG-depleted plasma” value is recorded as “less than 25%”. In addition, the “interaction between IgG and suPAR” value in [7] is “no interaction”. Also, the “effect of suPAR on scuPA activity” value in [8] (plasmin substrate Spect PL) was “stimulated”. Further, the “effect of suPAR on scuPA-mediated plasminogen activation” value in [8] (synthetic plasmin substrate S-2251) was “inhibit”.

“plasminogen: radiolabeled plasminogen used as irrelevant protein control in the protein G precipitation [reference compound]”: the “precipitation by protein G from native plasma” value in [6] is given as “not precipitated”.

For “ATF: amino-terminal fragment of urokinase; blocks interaction of scuPA with suPAR [reference compound]”, in test [3] (plasma clot, FIG. 3), the “effect of ATF on the stimulatory effect of suPAR on scuPA-mediated fibrinolysis” value is given as “almost complete inhibition”. Also, the “effect of ATF on the stimulatory effect of suPAR” value in [9] (bovine fibrinogen clot in serum) is “can be abolished”. Moreover, in test [5] (250 nM ATF, plasma clot covered with serum), the “effect of ATF on scuPA/suPAR mediated fibrinolysis” value was “significantly inhibited”.

“scuPA/suPAR complex: complex comprising single chain urokinase type plasminogen activator (scuPA) and soluble urokinase plasminogen activator receptor (suPAR)”: the lytic area in test [1] (purified bovine fibrinogen clot, FIG. 1(A), two wells each, listed as scuPA and suPAR) was 1.19 cm^2 and 1.05 cm^2. For the same substance, the “size of the lytic area” value in test [3] (human plasma clot, FIG. 2(A) lane (c), upper and lower panels, listed as scuPA and suPAR) is 0.94 cm^2 and 0.90 cm^2. Besides, in test [9] (purified bovine fibrinogen added to serum), the “efficiency of clot cleavage compared with scuPA alone” value is given as “greater efficiency than by scuPA alone”. Further, the “change of activity when a plasma clot is used instead of a fibrinogen clot” value in test [5] (FIG. 8) is on record as “increase”. In addition, the “effect of PBS instead of serum on the surface of the clot on fibrinolytic activity” value in test [5] (plasma clot) is “not affected”. Besides, in test [5] (plasma clot covered with serum, 25 nM activator), the “time to half maximal fibrinolysis” value turned out to be 54 min. The “time to half maximal fibrinolysis” value in [5] (plasma clot covered with serum, 50% decrease of the concentration of the complex, data not shown) is 102 min. The “time needed for half maximal fibrinolysis” value in test [5] (plasma clot covered with serum, doubling the concentration of the complex, data not shown) stood at 33 min. For the same substance, the “activity on clot formed by clotting of plasma compared with tcuPA” value in test [5] (setting [14]) is recorded as “greater than that of tcuPA”. In addition, the “effect of serum covering the clot on fibrinolysis” value in test [10] (clot formed by purified fibrin covered with serum or PBS, FIG. 7) was “stimulated”. In addition, the “fibrinolytic activity relative to that obtained on a plasma-derived clot” value in test [10] (purified fibrin clot covered with serum) is recorded as “about 60%”. In addition, in test [11], the “fibrinolytic activity in the absence of plasma-derived protein(s)” value is “little fibrinolytic activity” and the “scuPA/suPAR-mediated fibrinolytic activity in the presence of plasma-derived protein(s)” value is on record as “significantly increased”. Also, the “scuPA/suPAR mediated fibrinolysis of clot from IgG-depleted plasma” value in test [12] was “markedly retarded”. For the same substance, in [13], the “mechanism of PAI-1 inhibition” value is “competitive and reversible”; the “susceptibility of activity to PAI-1” value was “relatively resistant”.
